PubChem BioAssay AID449750 (Broad Institute, 2010)
Calls of active or inactive are those of the source. How the calls were made is not given here.

Test: non-covalent RecA intein splicing inhibitors, dose response, biochemical, cell-free, fluorescence, secondary screen (AID 449750)

Row | SMILES | AC50
1 | Cc1ccc(SCc2[nH]nc3c2C(c2ccco2)C(C#N)=C(N)O3)cc1 (stereo unspecified) | 14.8 µM
2 | O=C(O)/C=C/C(=O)Nc1ccc(C2(c3ccc(NC(=O)/C=C/C(=O)O)cc3)c3ccccc3-c3ccccc32)cc1 | 4.61 µM
3 | O=C(CCl)Nc1cccc(-c2cnc3ccccc3n2)c1 | 16.5 µM
4 | C[C@@H]1CC=C[C@H]2[C@H]1C(=O)N(Cc1ccccc1)[C@H]2c1ccc(F)c(Br)c1 | 17.9 µM
5 | Cc1cc(C)n(-c2ccc([N+](=O)[O-])cc2)n1 | > 38 µM (inactive)
6 | Cc1ccccc1Nc1cc2ccccc2c(=O)[nH]1 | 1.54 µM
7 | Cc1cccc(C(=O)c2cnc3ccccc3c2-c2ccccc2)c1 | 14.4 µM
8 | CC(C)CCn1c(N)c(C(=O)NCc2cccs2)c2nc3ccccc3nc21 | > 38 µM (inactive)
9 | Nc1c(O)cccc1C(=O)O | 27.2 µM
10 | Cc1cc(C(c2ccc(O)cc2)c2cc(C)c(O)cc2C)c(C)cc1O | 4.95 µM
11 | Cc1ccc(NC(=O)c2nc(S(=O)(=O)Cc3ccccc3C)ncc2Cl)cc1C | > 38 µM (inactive)
12 | COC(=O)c1ccccc1OC(=O)c1ccc(Br)o1 | > 38 µM (inactive)
13 | O=C1c2ccccc2-c2onc3ccc(N4CCCC4)c1c23 | > 38 µM (inactive)
14 | O=S(=O)(Nc1c(O)ccc2ccccc12)c1ccc(F)cc1 | 13.3 µM
15 | O=c1c2ccccc2nc2n1CCS2(=O)=O | > 38 µM (inactive)
16 | Cc1ccc(-n2[nH]c(C)c(/C=N/NC(=O)c3ccc([N+](=O)[O-])cc3)c2=O)c(C)c1 | 5.27 µM
17 | CSc1nc(-c2ccco2)nn1C(=O)c1cccs1 | > 38 µM (inactive)
18 | CCOC(=O)c1ccc(-n2[nH]c(-c3ccccc3)cc2=O)cc1 | 5.45 µM
19 | Cc1noc2ncnc(Sc3ccccc3Cl)c12 | > 38 µM (inactive)
20 | CCc1ccc(S(=O)(=O)Nc2ccc(O)c3ccccc23)cc1 | 0.535 µM
21 | CCOC(=O)C1CCN(Cc2cc(C(C)C)c(O)c(C(C)C)c2)CC1 | > 38 µM (inactive)
22 | C=CCc1cccc(C=Nc2c[nH]c(=O)[nH]c2=O)c1O | > 38 µM (inactive)
23 | CC(=O)N1CCC2(CC1)C(C#N)=C(N)Oc1n[nH]c(C)c12 | > 38 µM (inactive)
24 | Cc1[nH]n(-c2ccccc2)c(=O)c1C(c1cccc([N+](=O)[O-])c1O)c1c(C)[nH]n(-c2ccccc2)c1=O | 1.72 µM
25 | S=C1NCCC12C(=S)Nc1ccccc12 (stereo unspecified) | > 38 µM (inactive)
26 | Oc1ccc(/C=N/Nc2ccc(C(F)(F)F)cn2)c(O)c1 | > 38 µM (inactive)

Row | SMILES | AC50
27 | CC(C)=CCC/C(C)=C/Cc1c(O)ccc(C(=O)/C=C/c2ccc(O)cc2)c1O | 16.4 µM
28 | COc1ccc(CN(C(=O)CSc2nnc(-c3ccccc3C)o2)c2ccc(F)cc2)cc1 | 21.9 µM
29 | Cc1sc2ncnc(Sc3nnnn3-c3ccccc3)c2c1C | > 38 µM (inactive)
30 | CCN(Cc1ccc(OC)c(F)c1)C(=O)CCl | 11.9 µM
31 | COc1ccc2noc3c2c1C(=O)c1ccccc1-3 | 24.8 µM
32 | CCOC(=O)c1c(NC(=O)/C=C/C(=O)O)sc(C)c1-c1ccc(F)cc1 | 18 µM
33 | Cc1c(Cl)cccc1NC(=S)/C(=C(\[O-])c1ccc(Cl)s1)[n+]1ccccc1 | > 38 µM (inactive)
34 | CCOC(=O)c1c(NC(C)=O)sc2c1CCC(C=NCCCN(CC)CC)=C2Sc1ccccc1 | 0.311 µM
35 | O=C1COc2ccc(C(=O)CCl)cc2N1 | > 38 µM (inactive)
36 | COC(=O)c1c(NC(=O)/C=C/C(=O)O)sc(C)c1-c1ccc(C(C)C)cc1 | 11.6 µM
37 | O=C1C=C(N2CCCCC2)c2ccccc2C1=O | 10.4 µM
38 | C/C(CC(=O)Nc1ccc(Cl)cn1)=N\NC(=O)Cc1cccs1 | > 38 µM (inactive)
39 | COc1ccccc1/C=C/C1(C(=O)NC2CCCC2)CC(=O)N1c1ccc(C)cc1 (stereo unspecified) | 13.3 µM
40 | COc1cc(C2CC(c3cccs3)=NN2C(=O)CCl)ccc1OC(F)F (stereo unspecified) | > 38 µM (inactive)
41 | CC1=NN(c2ccccc2)C(=O)/C1=C/c1c(O)[nH]c(=O)[nH]c1=O | > 38 µM (inactive)
42 | CC(C)c1nnc(NC(=O)c2nc(S(=O)(=O)Cc3ccc(F)cc3)ncc2Cl)s1 | > 38 µM (inactive)
43 | O=C(Cc1cc(=O)[nH][nH]1)N/N=C/c1c(F)cccc1Cl | 30.7 µM
44 | Nc1ccc2nc(CCCCc3nc4ccccc4[nH]3)[nH]c2c1 | > 38 µM (inactive)
45 | CCCC(=O)N(C1CC(C)C(C#N)(C#N)C1(C#N)C#N)N(C)C (stereo unspecified) | > 38 µM (inactive)
46 | CC(=O)N(C1=C(Cl)C(=O)c2ccccc2C1=O)C1CCCCC1 | 2.79 µM
47 | CC1=C(CC(=O)c2ccccc2)C(=O)c2ccccc2C1=O | 16.6 µM
48 | CS/C(=C\[N+](=O)[O-])Nc1ccc(Cl)cc1 | > 38 µM (inactive)
49 | CC(C)C[C@H](N)c1nnc(S(=O)(=O)Cc2ccc(F)cc2)o1 | > 38 µM (inactive)
50 | CC(C)[C@H](NC(=O)Nc1ccc(Oc2ccccc2)cc1)C(=O)O | > 38 µM (inactive)
51 | O=C(CSc1nc2ccccc2nc1SCC(=O)N1CCOCC1)N1CCOCC1 | > 38 µM (inactive)
52 | CCc1[nH]nc2c1C(c1ccc(C)o1)C(C#N)=C(N)O2 (stereo unspecified) | > 38 µM (inactive)

Row | SMILES | AC50
53 | CCOc1cc(/C=C2/C(=O)N(c3ccccc3)N=C2C)ccc1OC(=O)c1ccco1 | 3.17 µM
54 | O=C(Nc1cccc(OC(=O)c2ccco2)c1)c1ccco1 | > 38 µM (inactive)
55 | COC(=O)c1cc([N+](=O)[O-])c(-n2ccnc2)c([N+](=O)[O-])c1 | > 38 µM (inactive)
56 | O=[N+]([O-])c1ccc(Sc2cccc[n+]2[O-])c2nonc12 | 9.27 µM
57 | CCSC1(SCC)N=C(N)C2(C#N)C(c3ccc(F)cc3)C12C#N (stereo unspecified) | 38.3 µM
58 | COc1cccc(N2CC(C(=O)Nc3nnc(SCC(=O)c4ccccc4)s3)CC2=O)c1 (stereo unspecified) | > 38 µM (inactive)
59 | COc1ccc(Nc2cnn(-c3nc4ccccc4s3)c(=O)c2Cl)cc1 | > 38 µM (inactive)
60 | CCN(CC)c1ccc2c(c1)CCCN2 | > 12 µM (inactive)
61 | Clc1ccc(CSC(Cn2ccnc2)c2ccc(Cl)cc2Cl)cc1 (stereo unspecified) | 8.47 µM
62 | COC(=O)[C@@H]1C[C@]2(OC(=O)c3ccccc3)C=CC(=O)C[C@@H]2N1C(=O)OCc1ccccc1 | 24.5 µM
63 | COc1ccc(-c2cc(=O)n(CCC#N)[nH]2)cc1 | 3.3 µM
64 | [O-]C1=N/[N+](=C/c2ccccc2)CC1 | > 38 µM (inactive)
65 | O=c1cc(-c2cccc([N+](=O)[O-])c2)[nH][nH]1 | 9.77 µM
66 | Cc1[nH]nc2c1C(c1cccc(OC(=O)N3CCOCC3)c1)C(C#N)=C(N)O2 (stereo unspecified) | > 38 µM (inactive)
67 | CC(=O)Nc1ccc(NC(=O)CSc2ncc(C(=O)Nc3ccc(F)cc3)c(=O)n2C)cc1 | > 38 µM (inactive)
68 | O=C(NCc1cccnc1)/C(=C/c1ccc(-c2ccc(Cl)cc2)o1)S(=O)(=O)c1ccccc1 | 32.4 µM
69 | CC(C)c1[nH]nc2c1C(Cc1ccccc1)C(C#N)=C(N)O2 (stereo unspecified) | > 38 µM (inactive)
70 | CS/C(=C/[N+](=O)[O-])Nc1cccc2c1C(C)CC2(C)C (stereo unspecified) | > 38 µM (inactive)
71 | CC(=O)Oc1ccc(N(C(C)=O)S(=O)(=O)c2ccc3ccccc3c2)cc1Br | 29.5 µM
72 | CC1(C)Nc2ccc(O)cc2-c2c1ssc2=S | > 38 µM (inactive)
73 | CCOC(=O)CSCC(=O)N1N=C(c2cccs2)CC1c1ccc(F)cc1 (stereo unspecified) | 16.9 µM
74 | Cc1ccccc1CS(=O)(=O)c1snnc1C | > 38 µM (inactive)
75 | Cc1ccc(NC(=O)CCl)cc1S(=O)(=O)N1CCCCCC1 | 10 µM
76 | CCc1ccc(S(=O)(=O)/N=C2\C=CC(=O)c3ccccc32)cc1 | 2.6 µM
